The results in this text go back to patent publication US9708318B2, “Bicyclic heterocycles as FGFR4 inhibitors” (Incyte Corporation, priority 2015, dated 2017).

The target of one experiment is FGFR3 enzyme (Homo sapiens (Human), UniProt P22607). As to the kind of experiment: FGFR Enzymatic Assay (FRET peptide phosphorylation), FGFR3. The conditions noted are these: for FGFR1/FGFR3 IC50 ratio / FGFR4/FGFR3 IC50 ratio: FGFR3 selectivity. The class given is biochemical. The protocol: (§1) The inhibitor potency of the exemplified compounds was measured in an enzyme assay that measures peptide phosphorylation using FRET measurements to detect product formation. Inhibitors were serially diluted in DMSO and a volume of 0.5 μL was transferred to the wells of a 384-well plate.
(§2) GraphPad prism3 was used to analyze the data.

In another experiment the target is FGFR1 (Homo sapiens (Human), UniProt P11362). In words: FGFR Enzymatic Assay (FRET peptide phosphorylation), FGFR1. The conditions noted are these: for IC50: FGFR1 IC50 (nM).
The next experiment addresses FGFR4 (Homo sapiens (Human), UniProt P22455). In words: FGFR Enzymatic Assay (FRET peptide phosphorylation), FGFR4. The class given is biochemical. The settings on record: for FGFR1/FGFR4 IC50 ratio / FGFR2/FGFR4 IC50 ratio / FGFR3/FGFR4 IC50 ratio: FGFR4 selectivity. The protocol: as §1
(§3) The enzymes were purchased from Millipore or Invitrogen.
as §2

The next experiment concerns the target FGFR2 (Homo sapiens (Human), UniProt P21802). As to the kind of experiment: FGFR Enzymatic Assay (FRET peptide phosphorylation), FGFR2. The class given is biochemical. The protocol:
as §1, §3, §2

The mark [1] stands for this setting: pre-incubated for 5 to 10 minutes, read-out: FGFR3 IC50.
Where [2] appears, read: pre-incubated for 5 to 10 minutes.
The mark [3] stands for this setting: pre-incubated for 4 hours, read-out: FGFR3 IC50.
[4] abbreviates: read-out: FGFR1 IC50, pre-incubated for 4 hours.

pIC50: −log10 of the molar value. Where two headings read alike, the source gives them in different places.

Sequence of FGFR3 enzyme (P22607 23-806): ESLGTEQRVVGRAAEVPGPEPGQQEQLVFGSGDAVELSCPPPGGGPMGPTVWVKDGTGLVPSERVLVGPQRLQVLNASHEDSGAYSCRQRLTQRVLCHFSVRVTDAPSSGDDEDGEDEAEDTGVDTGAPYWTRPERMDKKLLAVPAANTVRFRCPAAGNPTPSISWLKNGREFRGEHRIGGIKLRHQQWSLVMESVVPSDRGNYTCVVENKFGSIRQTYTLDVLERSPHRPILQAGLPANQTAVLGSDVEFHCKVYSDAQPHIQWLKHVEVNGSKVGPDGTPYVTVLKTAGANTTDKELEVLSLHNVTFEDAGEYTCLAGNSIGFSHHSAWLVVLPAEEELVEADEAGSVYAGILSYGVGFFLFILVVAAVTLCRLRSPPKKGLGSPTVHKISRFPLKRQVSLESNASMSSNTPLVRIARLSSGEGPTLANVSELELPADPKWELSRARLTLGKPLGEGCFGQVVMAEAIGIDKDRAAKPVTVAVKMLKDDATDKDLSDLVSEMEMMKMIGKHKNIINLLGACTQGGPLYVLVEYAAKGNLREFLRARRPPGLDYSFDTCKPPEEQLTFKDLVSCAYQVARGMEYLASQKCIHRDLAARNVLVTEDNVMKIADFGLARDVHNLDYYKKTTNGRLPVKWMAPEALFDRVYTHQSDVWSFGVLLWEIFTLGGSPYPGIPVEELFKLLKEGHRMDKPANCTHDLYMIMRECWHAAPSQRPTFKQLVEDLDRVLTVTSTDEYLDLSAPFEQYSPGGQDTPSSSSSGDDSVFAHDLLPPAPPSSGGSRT
Sequence of FGFR2 (P21802 22-821): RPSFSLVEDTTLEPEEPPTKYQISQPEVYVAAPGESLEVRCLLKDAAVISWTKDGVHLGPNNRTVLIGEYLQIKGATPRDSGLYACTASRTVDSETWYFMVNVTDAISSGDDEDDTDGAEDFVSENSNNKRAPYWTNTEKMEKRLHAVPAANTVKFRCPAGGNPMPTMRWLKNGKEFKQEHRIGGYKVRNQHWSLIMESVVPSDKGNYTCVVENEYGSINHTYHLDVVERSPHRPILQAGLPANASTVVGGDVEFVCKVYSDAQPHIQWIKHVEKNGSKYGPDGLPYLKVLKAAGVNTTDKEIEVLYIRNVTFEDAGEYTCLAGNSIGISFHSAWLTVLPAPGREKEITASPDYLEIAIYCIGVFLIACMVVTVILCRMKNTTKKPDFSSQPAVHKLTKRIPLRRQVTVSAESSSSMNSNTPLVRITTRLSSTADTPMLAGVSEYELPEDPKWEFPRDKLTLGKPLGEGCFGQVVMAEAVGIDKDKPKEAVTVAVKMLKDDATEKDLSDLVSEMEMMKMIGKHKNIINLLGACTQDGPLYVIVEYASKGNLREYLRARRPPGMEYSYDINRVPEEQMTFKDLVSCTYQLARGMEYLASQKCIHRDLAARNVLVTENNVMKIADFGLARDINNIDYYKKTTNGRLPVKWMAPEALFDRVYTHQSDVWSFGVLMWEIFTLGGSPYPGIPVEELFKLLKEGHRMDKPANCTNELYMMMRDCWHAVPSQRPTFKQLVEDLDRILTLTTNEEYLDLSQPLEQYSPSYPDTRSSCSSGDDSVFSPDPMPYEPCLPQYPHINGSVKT
Sequence of FGFR4 (P22455 22-802): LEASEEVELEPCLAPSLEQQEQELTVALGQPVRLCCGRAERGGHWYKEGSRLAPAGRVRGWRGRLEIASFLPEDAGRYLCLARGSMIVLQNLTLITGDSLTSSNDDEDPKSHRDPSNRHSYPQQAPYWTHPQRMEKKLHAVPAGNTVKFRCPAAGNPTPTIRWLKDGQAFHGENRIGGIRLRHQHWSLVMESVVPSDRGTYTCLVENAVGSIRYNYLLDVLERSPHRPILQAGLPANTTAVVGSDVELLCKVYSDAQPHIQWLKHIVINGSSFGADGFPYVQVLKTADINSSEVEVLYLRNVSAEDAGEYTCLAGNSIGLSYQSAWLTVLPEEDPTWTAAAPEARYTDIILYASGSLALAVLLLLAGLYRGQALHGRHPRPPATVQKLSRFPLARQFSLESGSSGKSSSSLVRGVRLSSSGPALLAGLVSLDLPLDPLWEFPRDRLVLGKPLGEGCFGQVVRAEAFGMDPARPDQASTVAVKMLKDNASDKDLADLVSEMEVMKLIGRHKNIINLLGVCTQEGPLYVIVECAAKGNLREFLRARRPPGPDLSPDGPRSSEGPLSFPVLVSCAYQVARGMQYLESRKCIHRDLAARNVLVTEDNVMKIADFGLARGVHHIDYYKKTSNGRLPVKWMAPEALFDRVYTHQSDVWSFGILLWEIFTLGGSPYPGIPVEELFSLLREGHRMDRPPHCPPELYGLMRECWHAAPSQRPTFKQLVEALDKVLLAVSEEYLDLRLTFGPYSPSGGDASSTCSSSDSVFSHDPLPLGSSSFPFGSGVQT
Sequence of FGFR1 (P11362 22-822): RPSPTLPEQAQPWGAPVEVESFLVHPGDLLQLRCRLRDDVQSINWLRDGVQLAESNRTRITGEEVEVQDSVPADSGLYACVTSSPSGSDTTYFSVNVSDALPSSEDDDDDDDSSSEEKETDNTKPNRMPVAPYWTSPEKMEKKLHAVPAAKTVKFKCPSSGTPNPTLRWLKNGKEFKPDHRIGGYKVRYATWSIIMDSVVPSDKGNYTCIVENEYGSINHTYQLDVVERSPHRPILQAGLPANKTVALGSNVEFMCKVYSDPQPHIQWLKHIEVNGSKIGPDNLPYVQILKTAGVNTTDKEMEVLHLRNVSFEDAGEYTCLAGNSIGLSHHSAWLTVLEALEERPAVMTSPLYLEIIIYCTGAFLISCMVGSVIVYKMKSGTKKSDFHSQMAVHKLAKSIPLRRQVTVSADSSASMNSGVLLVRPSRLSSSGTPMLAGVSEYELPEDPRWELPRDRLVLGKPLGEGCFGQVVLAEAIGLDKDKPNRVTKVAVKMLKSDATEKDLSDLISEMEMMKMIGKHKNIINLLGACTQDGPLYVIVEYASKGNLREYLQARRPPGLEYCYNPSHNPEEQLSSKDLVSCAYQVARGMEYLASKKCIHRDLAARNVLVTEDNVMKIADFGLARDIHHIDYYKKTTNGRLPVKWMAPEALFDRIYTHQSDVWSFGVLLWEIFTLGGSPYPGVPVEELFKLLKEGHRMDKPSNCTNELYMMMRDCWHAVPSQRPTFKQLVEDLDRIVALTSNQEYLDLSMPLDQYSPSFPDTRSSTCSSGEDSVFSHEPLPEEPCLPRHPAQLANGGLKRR

What is called pIC50 is −log10 of the IC50, conventionally taken in molar units. A word on the IC50: it is the midpoint of a concentration-inhibition curve. The low end stands for inhibition by little substance, the high end for a need for much substance. As to `COCCN1C(=O)N(c2c(F)c(OC)cc(OC)c2F)Cc2cnc(-c3ccc(C4(C#N)CCC4)nc3)cc21` [Example 139, 1-(5-(3-(2,6-difluoro-3,5-dimethoxyphenyl)-1-(2-methoxyethyl)-2-oxo-1,2,3,4-tetrahydropyrido[4,3-d]pyrimidin-7-yl)pyridin-2-yl)cyclobutanecarbonitrile], the negative-log IC50 (pIC50) was more than 8.00 at FGFR3 enzyme (setting [1]), 6.70 to 7.52 on FGFR4 (setting [2]) and more than 8.00 against FGFR2 (setting [2]). At FGFR1 (setting [2]), this molecule yielded a half-inhibitory concentration (IC50) of 30 to 200 nM.
`COc1cc(OC)c(F)c(N2Cc3cnc(-c4cn(C)nc4C)cc3N(c3cccc(F)c3)C2=O)c1F` [Example 99, 3-(2,6-difluoro-3,5-dimethoxyphenyl)-7-(1,3-dimethyl-1H-pyrazol-4-yl)-1-(3-fluorophenyl)-3,4-dihydropyrido[4,3-d]pyrimidin-2(1H)-one]: at FGFR3 enzyme (pre-incubated for 4 hours), the “FGFR1/FGFR3 IC50 ratio” value is more than 5. Moreover, the “FGFR4/FGFR3 IC50 ratio” value at FGFR3 enzyme (pre-incubated for 4 hours) was more than 5. Moreover, the negative logarithm of the IC50 (pIC50) at FGFR3 enzyme (setting [3]) was more than 8.00; at FGFR4 (pre-incubated for 4 hours) it was 6.70 to 7.52; against FGFR2 (pre-incubated for 4 hours) it was more than 8.00. On FGFR1 (pre-incubated for 4 hours), the IC50 lay in the range of 30 to 200 nM.
Take `COc1cc(OC)c(F)c(N2Cc3cnc(-c4cn(C)nc4C)cc3N(Cc3cc(C(C)C)on3)C2=O)c1F` [Example 93, 3-(2,6-difluoro-3,5-dimethoxyphenyl)-7-(1,3-dimethyl-1H-pyrazol-4-yl)-1-((5-isopropylisoxazol-3-yl)methyl)-3,4-dihydropyrido[4,3-d]pyrimidin-2(1H)-one]: on FGFR3 enzyme (pre-incubated for 4 hours), the “FGFR1/FGFR3 IC50 ratio” value was more than 5. Also, the “FGFR4/FGFR3 IC50 ratio” value at FGFR3 enzyme (pre-incubated for 4 hours) is reported as more than 5. The values for the negative logarithm of the IC50 (pIC50) at FGFR3 enzyme (setting [3]), against FGFR4 (pre-incubated for 4 hours) and against FGFR2 (pre-incubated for 4 hours) were more than 8.00, 6.70 to 7.52 and more than 8.00, respectively. Also, the IC50 on FGFR1 (pre-incubated for 4 hours) is 30 to 200 nM.
As to `COc1cncc(-c2cc3c(cn2)CN(c2c(F)c(OC)cc(OC)c2F)C(=O)C32CC2)c1` [Example 10, 2′-(2,6-difluoro-3,5-dimethoxyphenyl)-6′-(5-methoxypyridin-3-yl)-1′H-spiro[cyclopropane-1,4′-[2,7]naphthyridin]-3′(2′H)-one], at FGFR3 enzyme (pre-incubated for 4 hours), the “FGFR1/FGFR3 IC50 ratio” value is reported as more than 1. The pIC50 at FGFR3 enzyme (setting [1]) is 7.52 to 8.00; at FGFR3 enzyme (setting [3]), 7.52 to 8.00; against FGFR4 (setting [2]) it was more than 8.00; against FGFR4 (pre-incubated for 4 hours), more than 8.00; against FGFR2 (setting [2]), 7.52 to 8.00; at FGFR2 (pre-incubated for 4 hours), 7.52 to 8.00. Further, the IC50 against FGFR1 (setting [2]) and against FGFR1 (pre-incubated for 4 hours) was 30 to 200 nM throughout. Moreover, the “FGFR1/FGFR4 IC50 ratio” value on FGFR4 (setting [2]) and on FGFR4 (pre-incubated for 4 hours) was more than 25 in each case. Also, the entries for the “FGFR2/FGFR4 IC50 ratio” value on FGFR4 (setting [2]) and at FGFR4 (pre-incubated for 4 hours) were more than 10 and more than 25, respectively. Also, the “FGFR3/FGFR4 IC50 ratio” value at FGFR4 (setting [2]) and at FGFR4 (pre-incubated for 4 hours) was more than 10 throughout.
For the molecule `COc1cc(OC)c(F)c(N2Cc3cnc(-c4cn(C)nc4C)cc3N(C3(C#N)CC3)C2=O)c1F` [Example 91, 1-(3-(2,6-difluoro-3,5-dimethoxyphenyl)-7-(1,3-dimethyl-1H-pyrazol-4-yl)-2-oxo-3,4-dihydropyrido[4,3-d]pyrimidin-1(2H)-yl)cyclopropanecarbonitrile], the “FGFR1/FGFR3 IC50 ratio” value at FGFR3 enzyme (pre-incubated for 4 hours) was more than 5. The “FGFR4/FGFR3 IC50 ratio” value on FGFR3 enzyme (pre-incubated for 4 hours) was more than 5. Besides, the values for the pIC50 on FGFR3 enzyme (setting [3]), against FGFR4 (pre-incubated for 4 hours) and against FGFR2 (pre-incubated for 4 hours) were more than 8.00, 6.70 to 7.52 and more than 8.00, respectively. The molecule also gave an IC50 at FGFR1 (pre-incubated for 4 hours) of 30 to 200 nM.
Turning to `COc1cc(OC)c(F)c(N2Cc3cnc(-c4ccccc4)cc3C3(CC3)C2=O)c1F` [Example 17, 2′-(2,6-difluoro-3,5-dimethoxyphenyl)-6′-phenyl-1′H-spiro[cyclopropane-1,4′-[2,7]naphthyridin]-3′(2′H)-one], on FGFR3 enzyme (pre-incubated for 4 hours), the “FGFR1/FGFR3 IC50 ratio” value is given as more than 10. The negative-log IC50 (pIC50) at FGFR3 enzyme (setting [3]) was 7.52 to 8.00; on FGFR1 (setting [4]), less than 6.70; at FGFR4 (pre-incubated for 4 hours), 7.52 to 8.00; against FGFR2 (pre-incubated for 4 hours), 6.70 to 7.52.
For `COc1cc(OC)c(F)c(N2Cc3cnc(-c4ccc(C5(C#N)CCC5)nc4)cc3N(c3cnn(C)c3)C2=O)c1F` [Example 188, 1-{5-[3-(2,6-difluoro-3,5-dimethoxyphenyl)-1-(1-methyl-1H-pyrazol-4-yl)-2-oxo-1,2,3,4-tetrahydropyrido[4,3-d]pyrimidin-7-yl]pyridin-2-yl}cyclobutanecarbonitrile], the “FGFR1/FGFR3 IC50 ratio” value at FGFR3 enzyme (pre-incubated for 4 hours) is given as more than 5. Besides, the “FGFR4/FGFR3 IC50 ratio” value at FGFR3 enzyme (pre-incubated for 4 hours) is given as more than 5. For the same molecule, the negative-log IC50 (pIC50) was 7.52 to 8.00 on FGFR3 enzyme (setting [3]), 6.70 to 7.52 at FGFR4 (pre-incubated for 4 hours) and 7.52 to 8.00 against FGFR2 (pre-incubated for 4 hours). At FGFR1 (pre-incubated for 4 hours), this molecule showed an IC50 of 30 to 200 nM.
As for `COc1cc(OC)c(F)c(N2Cc3cnc(-c4cn(C)nc4C)cc3N(c3ccc4c(c3)CC(=O)N4)C2=O)c1F` [Example 119, 3-(2,6-difluoro-3,5-dimethoxyphenyl)-7-(1,3-dimethyl-1H-pyrazol-4-yl)-1-(2-oxoindolin-5-yl)-3,4-dihydropyrido[4,3-d]pyrimidin-2(1H)-one], the results for the negative logarithm of the IC50 (pIC50) on FGFR3 enzyme (setting [1]), against FGFR4 (setting [2]) and against FGFR2 (setting [2]) were more than 8.00, 7.52 to 8.00 and more than 8.00, respectively. The concentration for half-maximal inhibition (IC50) against FGFR1 (setting [2]) was in the range of 10 to 30 nM.
On to `COc1cc(OC)c(F)c(N2Cc3cnc(-c4cn(C)nc4C)cc3N(c3cnn(C4CC4)c3)C2=O)c1F` [Example 130, 1-(1-cyclopropyl-1H-pyrazol-4-yl)-3-(2,6-difluoro-3,5-dimethoxyphenyl)-7-(1,3-dimethyl-1H-pyrazol-4-yl)-3,4-dihydropyrido[4,3-d]pyrimidin-2(1H)-one], for which the “FGFR1/FGFR3 IC50 ratio” value at FGFR3 enzyme (pre-incubated for 4 hours) is on record as more than 5. On FGFR3 enzyme (pre-incubated for 4 hours), the “FGFR4/FGFR3 IC50 ratio” value is reported as more than 5. For the same molecule, the values for the pIC50 on FGFR3 enzyme (setting [3]), on FGFR4 (pre-incubated for 4 hours) and at FGFR2 (pre-incubated for 4 hours) were 7.52 to 8.00, 6.70 to 7.52 and 7.52 to 8.00, respectively. Besides, the half-maximal inhibitory concentration (IC50) on FGFR1 (pre-incubated for 4 hours) lay in the range of 30 to 200 nM.
Turning to `COc1cc(OC)c(F)c(N2Cc3cnc(-c4cn(C)nc4C)cc3N(Cc3cnn(C4CC4)c3)C2=O)c1F` [Example 124, 1-((1-cyclopropyl-1H-pyrazol-4-yl)methyl)-3-(2,6-difluoro-3,5-dimethoxyphenyl)-7-(1,3-dimethyl-1H-pyrazol-4-yl)-3,4-dihydropyrido[4,3-d]pyrimidin-2(1H)-one], at FGFR3 enzyme (pre-incubated for 4 hours), the “FGFR1/FGFR3 IC50 ratio” value is more than 10. The “FGFR4/FGFR3 IC50 ratio” value on FGFR3 enzyme (pre-incubated for 4 hours) is recorded as more than 10. Moreover, the negative logarithm of the IC50 (pIC50) on FGFR3 enzyme (setting [3]), at FGFR1 (setting [4]), against FGFR4 (pre-incubated for 4 hours) and against FGFR2 (pre-incubated for 4 hours) was more than 8.00 each time.
Take `COC(=O)N1CCC(N2C(=O)N(c3c(F)c(OC)cc(OC)c3F)Cc3cnc(-c4cn(C)nc4C)cc32)CC1` [Example 122, Methyl 4-(3-(2,6-difluoro-3,5-dimethoxyphenyl)-7-(1,3-dimethyl-1H-pyrazol-4-yl)-2-oxo-3,4-dihydropyrido[4,3-d]pyrimidin-1(2H)-yl)piperidine-1-carboxylate]: the pIC50 is 7.52 to 8.00 against FGFR3 enzyme, 6.70 to 7.52 at FGFR1, 6.70 to 7.52 against FGFR4 (pre-incubated for 4 hours) and 7.52 to 8.00 against FGFR2 (pre-incubated for 4 hours). Further, at FGFR3 enzyme (pre-incubated for 4 hours), the “FGFR1/FGFR3 IC50 ratio” value is more than 5. For the same molecule, the “FGFR4/FGFR3 IC50 ratio” value at FGFR3 enzyme (pre-incubated for 4 hours) was more than 5.
Take `CCn1cnc(-c2cc3c(cn2)CN(c2c(F)c(OC)cc(OC)c2F)C(=O)C32CC2)c1` [Example 53, 2′-(2,6-difluoro-3,5-dimethoxyphenyl)-6′-(1-ethyl-1H-imidazol-4-yl)-1′H-spiro[cyclopropane-1,4′-[2,7]naphthyridin]-3′(2′H)-one]: the “FGFR1/FGFR3 IC50 ratio” value at FGFR3 enzyme (pre-incubated for 4 hours) is reported as more than 5. For the same molecule, at FGFR3 enzyme (pre-incubated for 4 hours), the “FGFR4/FGFR3 IC50 ratio” value is more than 5. Also, the pIC50 on FGFR3 enzyme (setting [3]) was more than 8.00; at FGFR4 (pre-incubated for 4 hours) it was 7.52 to 8.00; on FGFR2 (pre-incubated for 4 hours) it was more than 8.00. In addition, the IC50 against FGFR1 (pre-incubated for 4 hours) lay within 10 to 30 nM.
